Measured values reported in ChEMBL document CHEMBL5729293, “Inhibitors of KEAP1-Nrf2 protein-protein interaction” (2022).

Experiment: Fluorescence Based Assay: The details of the KEAP1 KELCH ThermoFluor® Assay Construct are as follows: Kelch domain of human KEAP 1 (321-624 aa) was used in the assay. The protein was expressed in E. coli with 6His tag that was cleaved prior to receipt for use.ThermoFluor® experiments were carried out using instruments owned by Janssen Research and Discovery, L.L.C. through its acquisition of 3-Dimensional Pharmaceuticals, Inc. 1,8-ANS (Invitrogen) was used as a fluorescent dye. Protein (KEAP Kelch) and compound solutions were dispensed into black 384-well polypropylene PCR microplates (Abgene) and overlayed with silicone oil (1 μL, Fluka, type DC 200) to prevent evaporation.Reference wells contained KEAP Kelch without compounds, and the assay conditions were as follows: 1.1 μM (0.037mg/mL) KEAP Kelch, 80 μM 1,8-ANS, 25 mM PIPES, pH 7.0, 100 mM NaCl, 0.002% Tween-20.
In the case of Cc1cnc2c(c1)S(=O)(=O)N(Cc1nc([C@H](CC(=O)O)c3ccn4c(C(F)(F)F)nnc4c3C)ccc1C)C[C@H]1CCCCN21, the Kd is reported as under 1 nM. For CCn1nnc2c(C)c([C@@H](c3cnc(C)c(CN4CC5(CCOCC5)Oc5ncc(C)cc5S4(=O)=O)c3)C(C)(C)C(=O)O)ccc21, the Kd was under 1 nM. For Cc1ccc([C@@H](CC(=O)O)c2ccn3c(C(F)F)nnc3c2C)cc1CN1C[C@H]2CCCN2c2ncc(C#N)cc2S1(=O)=O, the Kd was under 1 nM. For Cc1cnc2c(c1)S(=O)(=O)N(Cc1cc([C@@H](CC(=O)O)c3ccn4c(C(F)F)nnc4c3C)ccc1C)CC1(CC1)O2, the Kd was under 1 nM. Molecule Cc1ccc([C@H](CC(=O)O)c2ccn3c(C(F)(F)F)nnc3c2C)cc1CN1C[C@H]2COCCN2c2ncc(Cl)cc2S1(=O)=O has a Kd of under 1 nM. Molecule CCn1nnc2c(C)c([C@H](c3ccc(C)c(CN4CC5(CCOCC5)Oc5ncccc5S4(=O)=O)n3)C(C)(C)C(=O)O)ccc21 has a Kd of under 1 nM. Cc1ccc([C@@H](c2ccn3c(C(F)F)nnc3c2C)C(C)(C)C(=O)O)nc1CN1CC2(COC2)Oc2ncccc2S1(=O)=O gave a Kd of under 1 nM. Cc1cnc2c(c1)S(=O)(=O)N(Cc1cc([C@@H](c3ccn4c(C(F)(F)F)nnc4c3C)C(C)(C)C(=O)O)ncc1C)CC1(CC1)O2 showed a Kd of under 1 nM. Cc1cc2cc([C@H](CC(=O)O)c3ccc(C)c(CN4C[C@H]5CCCN5c5ncccc5S4(=O)=O)c3)n(C)c2nn1 gave a Kd of under 1 nM. Molecule Cc1ccc([C@@H](c2ccn3c(C(F)F)nnc3c2C)C(C)(C)C(=O)O)cc1CN1CC2(CCOCC2)Oc2nc(OCCN3CCCC3)c(C)cc2S1(=O)=O has a Kd of under 1 nM. Work on Cc1ccc([C@H](CC(=O)O)c2ccn3c(C(F)(F)F)nnc3c2C)cc1CN1CC2(CC2)Oc2nc(NCCN3CCOCC3)ccc2S1(=O)=O yielded a Kd of under 1 nM. Cc1cnc2c(c1)S(=O)(=O)N(Cc1cc([C@H](c3ccc4c(nnn4C4CC4)c3C)C(C)(C)C(=O)O)ccc1C)CC1(CNC1)O2 gave a Kd of under 1 nM. With Cc1ccc([C@H](CC(=O)O)c2ccn3c(C(F)(F)F)nnc3c2C)cc1CN1CC2(CC2)Oc2nc(NCCN3CCCCC3)ccc2S1(=O)=O the Kd was under 1 nM. With Cc1ccc([C@@H](CC(=O)O)c2ccc3c(nnn3C3CC3)c2C)cc1CN1C[C@]2(C)CCCN2c2ncccc2S1(=O)=O the Kd was under 1 nM. Molecule Cc1ccc([C@H](CC(=O)O)c2cc(OC3CC3)c3c(c2)nnn3C)cc1CN1C[C@H]2CCCCN2c2ncccc2S1(=O)=O has a Kd of under 1 nM. Cc1cnc2c(c1)S(=O)(=O)N(Cc1cc([C@H](c3ccn4c(C(F)(F)F)nnc4c3)C(C)(C)C(=O)O)ccc1C)CC1(CC1)O2 gave a Kd of under 1 nM. Molecule Cc1ccc([C@H](CC(=O)O)c2ccn3c(C(F)F)nnc3c2C)cc1CN1CC2(CC2)Oc2ncc(F)cc2S1(=O)=O has a Kd of under 1 nM. CC[C@@H]1CN(Cc2cc([C@@H](CC(=O)O)c3ccn4c(C(F)(F)F)nnc4c3C)ccc2C)S(=O)(=O)c2cccnc2O1 showed a Kd of under 1 nM. With Cc1ccc([C@@H](c2ccn3c(C(F)(F)F)nnc3c2C)C(C)(C)C(=O)O)cc1CN1C[C@@H]2CCCCN2c2ncc(C#N)cc2S1(=O)=O the Kd was under 1 nM. In the case of Cc1ccc([C@H](c2ccn3c(C(F)(F)F)nnc3c2C)C(C)(C)C(=O)O)cc1CN1CC2(CCOCC2)Oc2nc(NC3CC(O)C3)c(C)cc2S1(=O)=O (stereo not given in full), the Kd is reported as under 1 nM. CCn1nnc2c(C)c([C@H](CC(=O)O)c3ccc(C)c(CN4CC5(CC5)Oc5ncccc5S4(=O)=O)n3)ccc21 gave a Kd of under 1 nM. For Cc1ccc([C@H](c2ccn3c(C(F)(F)F)nnc3c2C)C(C)(C)C(=O)O)cc1CN1CC2(CC2)Oc2nc(N[C@@H](C)CN3CCCCC3)c(C)cc2S1(=O)=O, the Kd was under 1 nM. For Cc1ccc([C@H](CC(=O)O)c2ccn3c(C(F)(F)F)nnc3c2C)nc1CN1CC2(CC2)Oc2ncccc2S1(=O)=O, the Kd was under 1 nM. In the case of Cc1cnc2c(c1)S(=O)(=O)N(Cc1cc([C@H](c3ccn4c(C(F)(F)F)nnc4c3C)C(C)(C)C(=O)O)cnc1C)CC1(CCOCC1)O2, the Kd is reported as under 1 nM. With Cc1ccc(C(CC(=O)O)c2ccn3c(C(F)(F)F)nnc3c2C)nc1CN1CC2CCCCN2c2ncc(Cl)cc2S1(=O)=O (stereo not given) the Kd was under 1 nM. In the case of Cc1ccc(C(CC(=O)O)c2ccn3c(C(F)(F)F)nnc3c2C)nc1CN1CC2(COC2)Oc2ccccc2S1(=O)=O (stereo not given), the Kd is reported as under 1 nM. With CCn1nnc2c(C)c([C@H](CC(=O)O)c3ccc(C)c(CN4C[C@H]5CCCCN5c5ncccc5S4(=O)=O)n3)ccc21 the Kd was under 1 nM. Work on Cc1cnc2c(c1)S(=O)(=O)N(Cc1cc([C@H](CC(=O)O)c3ccn4c(C(F)(F)F)nnc4c3C)ccc1Cl)CC1CCCCN21 (stereo not given in full) yielded a Kd of under 1 nM. Molecule Cc1ccc([C@@H](CC(=O)O)c2ccn3c(C(F)(F)F)nnc3c2C)cc1CN1C[C@H]2CCC(F)(F)CN2c2ncccc2S1(=O)=O has a Kd of under 1 nM. For Cc1ccc([C@@H](c2ccn3c(C(F)(F)F)nnc3c2C)C(C)(C)C(=O)O)cc1CN1CC2(CC2)Oc2nc(OCCN3CCCCC3)ccc2S1(=O)=O, the Kd was under 1 nM. With Cc1ccc(C(CC(=O)O)c2ccn3c(C(F)(F)F)nnc3c2C)cc1CN1CC2(COC2)Oc2ncccc2S1(=O)=O (stereo not given) the Kd was under 1 nM. For Cc1ccc([C@H](CC(=O)O)c2ccn3c(C(F)(F)F)nnc3c2C)cc1CN1C[C@@H]2CCCCN2c2ncc(C#N)cc2S1(=O)=O, the Kd was under 1 nM. Molecule Cc1ccc([C@@H](c2ccn3c(C4CC4)nnc3c2C)C(C)(C)C(=O)O)cc1CN1CC2(COC2)Oc2ncccc2S1(=O)=O has a Kd of under 1 nM. CC[C@@H]1CN(Cc2cc(C(CC(=O)O)c3ccn4c(C)nnc4c3)ccc2C)S(=O)(=O)c2cccnc2O1 (stereo not given in full) showed a Kd of under 1 nM. Work on Cc1cnc2c(c1)S(=O)(=O)N(Cc1cc([C@@H](c3ccn4c(C(F)(F)F)nnc4c3C)C(C)(C)C(=O)O)ccc1C)CC1(CC1)O2 yielded a Kd of under 1 nM. With CCn1nnc2c(C)c([C@H](CC(=O)O)c3ccc(C)c(CN4CC5(COC5)Oc5ccccc5S4(=O)=O)n3)ccc21 the Kd was under 1 nM. Molecule CCn1nnc2c(C)c([C@@H](CC(=O)O)c3ccc(C)c(CN4C[C@@H]5CCCCN5c5ncccc5S4(=O)=O)n3)ccc21 has a Kd of under 1 nM. Molecule Cc1ccc([C@H](CC(=O)O)c2ccn3c(C(F)(F)F)nnc3c2C)cc1CN1CC2(CC2)Oc2nc(N(C)CCCO)ccc2S1(=O)=O has a Kd of under 1 nM. Work on Cc1ccc([C@H](CC(=O)O)c2ccc3c(nnn3C3CC3)c2C)cc1CN1C[C@@H]2CCCCN2c2ncccc2S1(=O)=O yielded a Kd of under 1 nM. Cc1cnc2c(c1)S(=O)(=O)N(Cc1cc(C(c3ccc4c(nnn4C4CC4)c3C)C(C)(C)C(=O)O)cnc1C)CC1(CCOCC1)O2 (stereo not given) gave a Kd of under 1 nM. Cc1ccc([C@H](c2ccn3c(C(F)(F)F)nnc3c2C)C(C)(C)C(=O)O)cc1CN1CC2(CCOCC2)Oc2nc(N[C@H](C)CN3CCOCC3)c(C)cc2S1(=O)=O showed a Kd of under 1 nM. Molecule Cc1ccc(C(c2ccn3c(C(F)(F)F)nnc3c2C)C(C)(C)C(=O)O)cc1CN1CC2(CCOCC2)Oc2nc(N[C@H](C)CCO)ccc2S1(=O)=O (stereo not given in full) has a Kd of under 1 nM. For Cc1ccc([C@@H](CC(=O)O)c2ccn3c(C(F)(F)F)nnc3c2C)cc1CN1C[C@H]2CCCN2c2ncccc2S1(=O)=O, the Kd was under 1 nM. Cc1ccc(C(CC(=O)O)c2ccn3c(C(F)(F)F)nnc3c2C)cc1CN1C[C@H]2CCCCN2c2ncccc2S1(=O)=O (stereo not given in full) gave a Kd of under 1 nM. With Cc1ccc([C@@H](CC(=O)O)c2ccn3c(C(F)(F)F)nnc3c2C)cc1CN1C[C@H]2CCCN2c2ccccc2S1(=O)=O the Kd was under 1 nM. For Cc1ccc2c(n1)OC1(CC1)CN(Cc1cc([C@H](CC(=O)O)c3ccn4c(C(F)(F)F)nnc4c3C)ccc1C)S2(=O)=O, the Kd was under 1 nM. In the case of Cc1ccc([C@@H](c2ccn3c(C(F)(F)F)nnc3c2C)C(C)(C)C(=O)O)cc1CN1CC2(COC2)Oc2ncccc2S1(=O)=O, the Kd is reported as under 1 nM. For Cc1cnc2c(c1)S(=O)(=O)N(Cc1nc(C(CC(=O)O)c3ccn4c(C(F)(F)F)nnc4c3C)ccc1C)C[C@H]1CCCCN21 (stereo not given in full), the Kd was under 1 nM. Work on CC[C@@H]1CN(Cc2cc([C@@H](CC(=O)O)c3ccn4c(C(F)F)nnc4c3C)ccc2C)S(=O)(=O)c2cccnc2O1 yielded a Kd of under 1 nM. With Cc1ccc(C(CC(=O)O)c2ccn3c(C(F)F)nnc3c2C)cc1CN1C[C@H]2CCCN2c2ncccc2S1(=O)=O (stereo not given in full) the Kd was under 1 nM. In the case of CCc1c([C@@H](CC(=O)O)c2ccc(C)c(CN3C[C@H]4CCCCN4c4ncc(C)cc4S3(=O)=O)c2)ccn2c(C(F)(F)F)nnc12, the Kd is reported as under 1 nM. For Cc1ccc([C@H](CC(=O)O)c2ccn3c(C(F)F)nnc3c2C)cc1CN1CC2(CC2)Oc2ncccc2S1(=O)=O, the Kd was under 1 nM. Molecule Cc1ccc([C@H](c2ccn3c(C(F)(F)F)nnc3c2C)C(C)(C)C(=O)O)cc1CN1CC2(CCOCC2)Oc2nc(OCC(=O)NCCO)ccc2S1(=O)=O has a Kd of under 1 nM. For Cc1ccc([C@@H](c2cc(C)n3c(C(F)(F)F)nnc3c2C)C(C)C(=O)O)cc1CN1C[C@@H]2CCCCN2c2ncccc2S1(=O)=O (stereo not given in full), the Kd was under 1 nM. With CCn1nnc2c(C)c([C@H](c3ccc(C)c(CN4CC5(CCOCC5)Oc5ncc(C)cc5S4(=O)=O)n3)C(C)(C)C(=O)O)ccc21 the Kd was under 1 nM. With Cc1ccc([C@H](c2ccn3c(C(F)(F)F)nnc3c2C)C(C)(C)C(=O)O)cc1CN1CC2(CCOCC2)Oc2nc(N[C@H](C)C(C)(C)O)c(C)cc2S1(=O)=O the Kd was under 1 nM. Work on CC[C@@H]1CN(Cc2cc([C@H](CC(=O)O)c3ccn4c(C(F)(F)F)nnc4c3C)ccc2C)S(=O)(=O)c2cccnc2O1 yielded a Kd of under 1 nM. In the case of Cc1ccc([C@H](CC(=O)O)c2ccn3c(C(F)(F)F)nnc3c2C)cc1CN1C[C@H]2CCCCN2c2nc(C(N)=O)ccc2S1(=O)=O, the Kd is reported as under 1 nM. Work on Cc1ccc(C(CC(=O)O)c2cc(OC(F)F)c3c(c2)nnn3C)cc1CN1C[C@H]2CCCN2c2ncccc2S1(=O)=O (stereo not given in full) yielded a Kd of under 1 nM. Work on Cc1ccc([C@@H](c2ccn3c(C4CC4)nnc3c2C)C(C)(C)C(=O)O)cc1CN1CC2(CC2)Oc2nc(OCCN3CCCC3)c(C)cc2S1(=O)=O yielded a Kd of under 1 nM. COCCCNc1ccc2c(n1)OC1(CC1)CN(Cc1cc([C@H](CC(=O)O)c3ccn4c(C(F)(F)F)nnc4c3C)ccc1C)S2(=O)=O showed a Kd of under 1 nM. With Cc1cnc2c(c1)S(=O)(=O)N(Cc1cc([C@@H](c3ccn4c(C(F)(F)F)nnc4c3C)C(C)(C)C(=O)O)ccc1C)CC1(CNC1)O2 the Kd was under 1 nM. Cc1ccc([C@@H](CC(=O)O)c2ccn3c(C(F)(F)F)nnc3c2C)nc1CN1C[C@@H]2CCCCN2c2ncc(F)cc2S1(=O)=O showed a Kd of under 1 nM. Molecule Cc1ccc([C@@H](CC(=O)O)c2ccn3c(C(F)F)nnc3c2C)cc1CN1CC2(CC2)Oc2ncc(Cl)cc2S1(=O)=O has a Kd of under 1 nM. For Cc1ccc([C@@H](CC(=O)O)c2ccn3c(C(F)F)nnc3c2C)cc1CN1C[C@H]2CCCCN2c2ncc(C#N)cc2S1(=O)=O, the Kd was under 1 nM.
